Assay results: patent publication US4229204A, “Trifluoromethylphenyl isoxazolyl benzoates” (Monsanto Company, priority 1978, dated 1980)

Experiments:
Assay type in all cases: in vivo
[1] = system: Crabgrass; assay: Pre-emergent herbicidal test; details: 4 WAT; further: ranges in brackets are in %
How it was run: (§1)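 Seeds or vegetative propagules were pressed onto compacted topsoil in pans, then covered with a soil layer thoroughly mixed with a known amount of active ingredient, applied in solvent or as a wettable powder. Injury to each species was scored on a fixed percent-injury scale.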

[2] = system: Panicum Spp.; assay: Pre-emergent herbicidal test; details: 4 WAT; further: ranges in brackets are in %
How it was run: as §1

[3] = system: Rice; assay: Pre-emergent herbicidal test; details: 4 WAT; further: ranges in brackets are in %
How it was run: as §1

[4] = system: Sorghum; assay: Pre-emergent herbicidal test; details: 4 WAT; further: ranges in brackets are in %
How it was run: as §1

[5] = system: Soybean; assay: Pre-emergent herbicidal test; details: 4 WAT; further: ranges in brackets are in %
How it was run: as §1

[6] = system: Wheat; assay: Pre-emergent herbicidal test; details: 4 WAT; further: ranges in brackets are in %
How it was run: as §1

[7] = system: Wild Buckwheat; assay: Pre-emergent herbicidal test; details: 4 WAT; further: ranges in brackets are in %
How it was run: as §1

[8] = system: Crabgrass; assay: Post-emergent herbicidal test; further: ranges in brackets are in %
Description: (§2) The post-emergent tests were conducted as follows:
(§3) The active ingredients are applied in spray form to two or three week old specimens of various plant species. The spray, a solution or wettable powder suspension containing the appropriate rate of active ingredient to give the desired test rate and a surfactant, is applied to the plants.

[9] = system: Hemp Sesbania; assay: Post-emergent herbicidal test; further: ranges in brackets are in %
Description: as §2, §3

[10] = system: Panicum Spp.; assay: Post-emergent herbicidal test; further: ranges in brackets are in %
Description: as §2, §3

[11] = system: Rice; assay: Post-emergent herbicidal test; further: ranges in brackets are in %
Description: as §2, §3

[12] = system: Sorghum; assay: Post-emergent herbicidal test; further: ranges in brackets are in %
Description: as §2, §3

[13] = system: Soybean; assay: Post-emergent herbicidal test; further: ranges in brackets are in %
Description: as §2, §3

[14] = system: Sugarbeet; assay: Post-emergent herbicidal test; further: ranges in brackets are in %
Description: as §2, §3

[15] = system: Wheat; assay: Post-emergent herbicidal test; further: ranges in brackets are in %
Description: as §2, §3

[16] = system: Wild Buckwheat; assay: Post-emergent herbicidal test; further: ranges in brackets are in %
Description: as §2, §3

[17] = system: Barnyardgrass; assay: Post-emergent herbicidal test; further: ranges in brackets are in %
How it was run: (§4)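 Post-emergence foliar spray; plants 2–3 wk old; solution or wettable powder suspension at test rate plus surfactant.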

[18] = system: Canada Thistle; assay: Post-emergent herbicidal test; details: 4 WAT, 11.2 kg/h; further: ranges in brackets are in %
How it was run: as §4

[19] = system: Cocklebur; assay: Post-emergent herbicidal test; further: ranges in brackets are in %
How it was run: as §4

[20] = system: Downy Brome; assay: Post-emergent herbicidal test; further: ranges in brackets are in %
How it was run: as §4

[21] = system: Johnsongrass; assay: Post-emergent herbicidal test; details: 4 WAT, 11.2 kg/h; further: ranges in brackets are in %
How it was run: as §4

[22] = system: Lambsquarters; assay: Post-emergent herbicidal test; further: ranges in brackets are in %
How it was run: as §4

[23] = system: Morningglory; assay: Post-emergent herbicidal test; further: ranges in brackets are in %
How it was run: as §4

[24] = system: Quackgrass; assay: Post-emergent herbicidal test; details: 4 WAT, 11.2 kg/h; further: ranges in brackets are in %
How it was run: as §4

[25] = system: Smartweed; assay: Post-emergent herbicidal test; further: ranges in brackets are in %
How it was run: as §4

[26] = system: Velvetleaf; assay: Post-emergent herbicidal test; further: ranges in brackets are in %
How it was run: as §4

[27] = system: Yellow Nutsedge; assay: Post-emergent herbicidal test; details: 4 WAT, 11.2 kg/h; further: ranges in brackets are in %
How it was run: as §4

[28] = system: Williams soybeans; assay: Soybean seed yield test (Table V)
Description: Additionally, the compound of Example Number 3 was tested as follows.
Williams soybeans were planted on 5.5 inch row spacings. The soybeans were treated at three different stages of early growth (first, second or third trifoliate opening) with a formulation of the compound of Example Number 3 containing 0.25% Tween 20 as a surfactant.

[29] = system: Bluebell rice; assay: Growth regulation of rice; details: four-week old rice, 250 ppm, both at 3 weeks and 7 weeks after treatment
Text: The compound of Example Number 3 was applied to four-week old Bluebell rice at a rate of 250 ppm.

[30] = system: grain sorghum; assay: Growth regulation of grain sorghum (Table IX); details: 250 ppm
Text: The compound of Example Number 3 was also applied to four-week old grain sorghum at a rate of 250 ppm.

[31] = system: harber barley; assay: Growth regulation of barley (Table X)
Text: Table X, below, summarizes observations made when the compound of Example Number 3 was applied to harber barley.

COC(=O)c1ccccc1-c1cc(-c2cccc(C(F)(F)F)c2)no1 [Example 3, Methyl 2-[3-[3-(Trifluoromethyl)-Phenyl]-5-Isoxazolyl]Benzoate]
63.6 bu/acre: Seed Yield ([28]; 0.0062 lb/acre, stage of application 2 (untreated 63.9))
71.3 bu/acre: Seed Yield ([28]; 0.0500 lb/acre, stage of application 2 (untreated 63.9))
stature reduction and tillering: Observations compared with the control [29]
106 % of Control: Plant Height ([31]; time of treatment 42 days, 50 ppm, 3 weeks after treatment)
90 % of Control: Plant Height ([31]; time of treatment 16 days, 250 ppm, 3 weeks after treatment) | Plant Height ([31]; time of treatment 42 days, 250 ppm, 3 weeks after treatment)
65.7 bu/acre: Seed Yield ([28]; 0.0125 lb/acre, stage of application 3 (untreated 63.9))
93 % of Control: Plant Height ([31]; time of treatment 42 days, 10 ppm, 3 weeks after treatment)
57.5 bu/acre: Seed Yield ([28]; 0.0375 lb/acre, stage of application 2 (untreated 63.9))
Necrosis.: Other Observations ([30]; 7 weeks after treatment)
97 % of Control: Plant Height ([31]; time of treatment 16 days, 250 ppm, 6 weeks after treatment)
91 % of Control: Plant Height ([30]; 3 weeks after treatment)
3 (75-99): herbicidal rating ([17]; 4 WAT, 11.2 kg/h) | herbicidal rating [24]
0 (0-24): herbicidal rating ([8]; 2 WAT, 1.12 kg/h) | herbicidal rating ([8]; 4 WAT, 5.60 kg/h) | herbicidal rating ([9]; 4 WAT, 5.60 kg/h) | herbicidal rating ([10]; 2 WAT, 1.12 kg/h) | herbicidal rating ([10]; 4 WAT, 5.60 kg/h) | herbicidal rating ([11]; 2 WAT, 1.12 kg/h) | herbicidal rating ([11]; 4 WAT, 5.60 kg/h) | herbicidal rating ([12]; 2 WAT, 1.12 kg/h) | herbicidal rating ([12]; 4 WAT, 5.60 kg/h) | herbicidal rating ([14]; 2 WAT, 1.12 kg/h) | herbicidal rating ([15]; 4 WAT, 5.60 kg/h) | herbicidal rating ([17]; 2 WAT, 1.12 kg/h) | herbicidal rating ([17]; 4 WAT, 5.60 kg/h) | herbicidal rating ([20]; 2 WAT, 1.12 kg/h) | herbicidal rating ([20]; 4 WAT, 5.60 kg/h) | herbicidal rating [27]
4 (100): herbicidal rating ([22]; 4 WAT, 11.2 kg/h) | herbicidal rating ([25]; 4 WAT, 11.2 kg/h)
69.9 bu/acre: Seed Yield ([28]; 0.0250 lb/acre, stage of application 3 (untreated 63.9))
81 % of Control: Plant Height ([30]; 7 weeks after treatment)
59.6 bu/acre: Seed Yield ([28]; 0.0375 lb/acre, stage of application 1 (untreated 63.9))
67.4 bu/acre: Seed Yield ([28]; 0.0125 lb/acre, stage of application 1 (untreated 63.9))
3 (75-100): herbicidal rating ([2]; 5.60 kg/h) | herbicidal rating ([3]; 1.12 kg/h) | herbicidal rating ([3]; 5.60 kg/h) | herbicidal rating ([4]; 5.60 kg/h) | herbicidal rating ([5]; 5.60 kg/h) | herbicidal rating ([7]; 5.60 kg/h)
70.3 bu/acre: Seed Yield ([28]; 0.0375 lb/acre, stage of application 3 (untreated 63.9))
1 (25-49): herbicidal rating ([6]; 1.12 kg/h) | herbicidal rating ([9]; 2 WAT, 1.12 kg/h) | herbicidal rating ([13]; 2 WAT, 1.12 kg/h) | herbicidal rating ([13]; 4 WAT, 5.60 kg/h) | herbicidal rating ([14]; 4 WAT, 5.60 kg/h) | herbicidal rating ([15]; 2 WAT, 1.12 kg/h) | herbicidal rating ([16]; 2 WAT, 1.12 kg/h) | herbicidal rating ([16]; 4 WAT, 5.60 kg/h) | herbicidal rating ([19]; 2 WAT, 1.12 kg/h) | herbicidal rating ([19]; 4 WAT, 5.60 kg/h) | herbicidal rating ([22]; 2 WAT, 1.12 kg/h) | herbicidal rating ([22]; 4 WAT, 5.60 kg/h) | herbicidal rating ([23]; 2 WAT, 1.12 kg/h) | herbicidal rating ([23]; 4 WAT, 5.60 kg/h) | herbicidal rating ([25]; 2 WAT, 1.12 kg/h) | herbicidal rating ([25]; 4 WAT, 5.60 kg/h) | herbicidal rating ([26]; 2 WAT, 1.12 kg/h) | herbicidal rating ([26]; 4 WAT, 5.60 kg/h)
64.7 bu/acre: Seed Yield ([28]; 0.0250 lb/acre, stage of application 2 (untreated 63.9))
62.5 bu/acre: Seed Yield ([28]; 0.0250 lb/acre, stage of application 1 (untreated 63.9))
68.2 bu/acre: Seed Yield ([28]; 0.0125 lb/acre, stage of application 2 (untreated 63.9))
2 (50-74): herbicidal rating ([1]; 1.12 kg/h) | herbicidal rating ([1]; 5.60 kg/h) | herbicidal rating ([2]; 1.12 kg/h) | herbicidal rating ([4]; 1.12 kg/h) | herbicidal rating ([5]; 1.12 kg/h) | herbicidal rating ([6]; 5.60 kg/h) | herbicidal rating ([7]; 1.12 kg/h) | herbicidal rating [18] | herbicidal rating ([19]; 4 WAT, 11.2 kg/h) | herbicidal rating ([20]; 4 WAT, 11.2 kg/h) | herbicidal rating [21] | herbicidal rating ([23]; 4 WAT, 11.2 kg/h) | herbicidal rating ([26]; 4 WAT, 11.2 kg/h)
